# Data as given in article PMC10518340, “Secreted LRPAP1 binds and triggers IFNAR1 degradation to facilitate virus evasion from cellular innate immunity” (Signal Transduction and Targeted Therapy, 2023).
# Experiments:
# [1] = system: extracellular domain of IFNAR1; test: Pull-down / co-immunoprecipitation of LRPAP1 with IFNAR1; type: binding; conditions: HEK-293T cells ectopic-expressing LRPAP1 and IFNAR1; also mouse cerebrum
# Procedure: (§1) The interaction of LRPAP1, LRP1 and IFNAR1 was examined by immunoprecipitation using a protocol described as followed. HEK293T cells were cultured at around 90% confluence in a 100 mm tissue culture dish. Cells were washed with 10 ml of PBS and harvested in 0.5 ml of ice-cold lysis buffer ([…], pH 7.4, 1% SDS, 1% NP-40) and Protease Cocktail (Roche) and PhoSTOP (Roche). The total extract was pre-cleared with 10 μg normal rabbit IgG (Cell signaling, 2729 S) and 20 μl of protein A/G plus-agarose (Santa Cruz Biotechnology) at 4 °C on a rotor for 1 h. After gently removed protein A/G agarose beads by centrifugation at 500 rcf for 2 min, 0.2 mg of total extract was immunoprecipitated with the indicated antibodies overnight at 4 °C on a rotor. Approximately 20 μl of protein A/G plus-agarose (Santa Cruz Biotechnology) was added at 4 °C for one hour. Then, the beads were washed three times with washing buffer (lysis buffer contained 0.1% NP-40). The pellet was suspended with 40 μl PBS and 10 μl of 5× SDS-PAGE loading buffer and the samples were boiled for 10 min.
# The interaction of LRPAP1, LRP1 and IFNAR1 was examined by immunoprecipitation using a protocol described as followed. HEK293T cells were cultured at around 90% confluence in a 100 mm tissue culture dish. […]
# IFNAR1 [2] = test: IFNAR1 ubiquitination, immunoprecipitation, HEK-293T cells; type: cell-based, human; conditions: ubiquitin, LRPAP1 and IFNAR1 overexpressed
# Procedure: as §1
# HCoV-OC43 = HCoV-OC43 infection of RD cells (viral RNA, TCID50, CPE); conditions: antibody 0.5 μg/ml; peptides 1 μM or rLRPAP1 200 nM pre-treatment 1 h, 72 h; siRNA 24 h then MOI 1, 72 h
# EV71 = EV71 infection of RD cells (viral RNA, titer, viral protein, CPE); conditions: RD cells, 9 h; plasmid, recombinant protein or peptide pre-treatment; viral RNA / titer
# HSV-1 = HSV-1 infection of RD cells (viral DNA, TCID50, viral protein, CPE)
# HBV = HBV level in HepAD38 cells, immunoblot; type: cell-based; conditions: HepAD38, siRNA or overexpression 48 h
# IFNAR1 [3] = test: IFNAR1 protein level, immunoblot, HEK-293T cells; type: cell-based, human
# IFNAR1 [4] = test: IFNAR1 protein level, HepAD38 cells, immunoblot; type: cell-based; conditions: siRNA or overexpression 48 h; LF 400 nM 24 h
# [5] = system: type I IFN signaling pathway; test: Interferon-stimulated gene (ISG) mRNA levels, RD cells; type: cell-based; conditions: excessive LRPAP1 expression
# 2A^pro = test: MST binding to recombinant 2A protease (baits r2A and 2Am; MS and MST); set-up: species or system EV71; conditions: recombinant 2A^pro (r2A) and 2A^C110A (2Am) as baits
# Procedure: (§2) The polyhistidine (His)-tag peptides, the recombinant 2A, the recombinant 2Am, and ECD-IFNAR1, were incubated with the RED-tris-NTA 2nd Generation dye (Cat#MO-L018, Nanotemper-Technologies) for 30 min, respectively. Then these fluorescently labeled peptides were mixed with the serial diluted ligands, including the scramble peptide, the commercial penetrating peptide (RV5), LRPAP1 peptides (RAPD1P1, RAPD1P2), or rLRPAP1 without His-tag, respectively. The mixtures were captured by Monolith^TM NT.115 Series capillaries (Cat# MO-K022). Capillaries were then subjected to Monolith NT for MST analysis. According to Monolith guidelines, signal-to-noise (S/N) ratios greater than 5.0 were indicated as the valid binding.
# as §2, with “NT. For” for “NT for”, “According to Monolith guidelines, signal-to-noise (S/N) ratios greater than 5.0 were indicated as the valid binding.” left out
substance,measurement,setting,value
LDL-receptor-related protein-associated protein 1 [LRPAP1],interaction of LRPAP1 and IFNAR1 (co-immunoprecipitation),[1],confirmed the interaction of LRPAP1 and IFNAR1
same,IFNAR1 ubiquitination,IFNAR1 [2],dramatically increased IFNAR1 ubiquitination
same,HCoV-OC43 CPE,HCoV-OC43,more obvious cytopathic effects
same,EV71 infection,EV71,strikingly promoted EV71 infection
same,HSV-1 CPE,"HSV-1; peptides 1 μM or rLRPAP1 200 nM pre-treatment 1 h, 24 h",more obvious cytopathic effect
same,HSV-1 DNA replication,"HSV-1; pre-treated 1 h, MOI 10, 24 h, RT-qPCR",promoted the DNA replication of HSV-1
same,HBV level,HBV,higher HBV loads
same,IFNAR1 level on simultaneous expression of LRPAP1 and 2A^pro,IFNAR1 [3]; co-expressed with 2A^pro,complete undetectability of IFNAR1 levels
same,IFNAR1 level,IFNAR1 [3]; transfected cells (ectopic expression or siRNA),decreasing IFNAR1 to a marginal detectable level
same,IFNAR1 expression in HepAD38 cells,IFNAR1 [4],decreased level of IFNAR1
same,type I IFN signaling pathway,[5],suppressing the type I IFN signaling pathway and the expression of downstream interferon-stimulated genes
same,interaction with 2A^pro,2A^pro,interacts with 2A^pro
